Data reported in patent EP0011845A2, “Antiseborrhoeic hair treatment composition” (Henkel Kommanditgesellschaft auf Aktien, priority 1978, dated 1980).

System: Meerschweinchen
Experiment: Anti-dandruff test: oleic-acid-induced scaling and skin thickening on shaved guinea pig back
Assay type: in vivo
Details: 5 % test substance with 5 % Ölsäure in 70 % ethanol, topical on the back, 60 min exposure, 4 consecutive days, evaluated on day 7, inhibition vs skin treated with oleic acid only; for Hautdickenmessung Hemmung %: skin fold thickness by Cutimeter nach Götze; for Hautschuppenmessung Hemmung %: visual scaling score on scale 0-4
From the text: Die Prüfung auf Antischuppenwirkung wurde in folgender Weise durchgeführt, wobei B) als mit Natronlauge auf einen pH-Wert von 6 neutralisiertes Produkt zum Einsatz gelangte:
Die Prüfsubstanzen wurden in 5 %iger Konzentration zusammen mit 5 % Ölsäure in 70 %igem Ethanol gelöst und in alternierender Reihenfolge und in rotierendem Schema auf den Rücken junger, geschorener weiblicher Meerschweinchen im Gewicht von 600 ± 50 g aufgetragen. Die Einwirkungszeit der Substanzen wurde dabei auf 60 Minuten begrenzt, da diese Zeit ausreichte, um eine Wirkung zu erzielen. Anschließend wurden die Tiere mit warmem Wasser 30 Sekunden lang abgeduscht. Die Reihenfolge der Tiere bei der Applikation wechselte dabei täglich, um Differenzen in der Einwirkungszeit zwischen dem ersten und letzten Tier der Gruppe auf ein Minimum zu begrenzen. Diese Behandlung geschah an vier aufeinanderfolgenden Tagen, darauf folgte eine Ruhezeit (Entwicklungszeit von drei Tagen). Am siebenten Tag wurde ausgewertet, und zwar a) kutimetrisch auf Hautfaltendicke instrumentell mit dem Cutimeter nach Götze und b) visuell auf Schuppenbildung bzw. Hemmung nach einer 4-Punkte-Skala folgender Definition: • 0 = keine Schuppen • 1 = leichte Schuppen • 2 = kräftige Schuppen • 3 = starke Schuppen mit Rötung • 4 = Krusten mit Aufrichten der Haare.
Die Versuchsgruppen bestanden aus jeweils 6 Tieren. Die Kollektive wurden mathematisch auf Homogenität geprüft und nach Eliminierung signifikant abweichender Tiere wurden Mittelwert und Streuung für jede Substanz berechnet. Diese wurden in Beziehung gesetzt zu den Werten der nur mit 5 % Ölsäure in 70 %igem Ethanol behandelten Haut und daraus die Signifikanz der Hemmwirkung bestimmt. Das Ergebnis der Prüfung ist der nachstehenden Tabelle 1 zu entnehmen.

SMILES | Hautdickenmessung Hemmung % | Hautschuppenmessung Hemmung %
CCOC(=O)CCCCCNC(=O)c1cc(OC)c(OC)c(OC)c1 [Wirkstoff A, N-(3,4,5-Trimethoxy-benzoyl)-6-amino-capronsäure-ethylester] | 15% | 100%
COc1cc(C(=O)NCCCCCC(=O)O)cc(OC)c1OC [Wirkstoff B, N-(3,4,5-Trimethoxy-benzoyl)-6-amino-carbonsäure] | 10% | 50%
